According to ChEMBL document CHEMBL1909046, “DrugMatrix in vitro pharmacology data”:

Experiments:
[1] = DRUGMATRIX: Phosphodiesterase PDE3 enzyme inhibition (substrate: [3H]cAMP + cAMP); format: tissue-based, Homo sapiens; settings: platelet; Not Active = under 50% inhibition at 10 µM
[2] = DRUGMATRIX: Potassium Channel [KATP] radioligand binding (ligand: [3H] Glyburide); format: cell membranes, Membrane; settings: hit-t15; Not Active = under 50% inhibition at 10 µM
[3] = target: Aldo-keto reductase family 1 member B1 (Rattus norvegicus, UniProt P07943); format: tissue-based, Lens of camera-type eye;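 note: inhibition of aldose reductase enzyme activity, measured with DL-glyceraldehyde as the substrate; in other assays of this panel Not Active means under 50% inhibition at 10 µM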
[4] = target: Kappa-type opioid receptor (Homo sapiens, UniProt P41145); assay: DRUGMATRIX: Opiate kappa (OP2, KOP) radioligand binding (ligand: [3H] Diprenorphine); format: cell membranes, HEK293, Membrane; settings: hek293; Not Active = under 50% inhibition at 10 µM
[5] = DRUGMATRIX: GABAA, Chloride Channel, TBOB radioligand binding (ligand: [3H] TBOB); format: cell membranes, Rattus norvegicus, Wistar, Cerebral cortex, Membrane; settings: Not Active = under 50% inhibition at 10 µM
Carbonic anhydrase 2 = Carbonic anhydrase 2 (Homo sapiens, UniProt P00918); assay: DRUGMATRIX: Carbonic Anhydrase II enzyme inhibition (substrate: 4-Nitrophenyl acetate (4-NPA)); format: tissue-based, Erythrocyte; settings: erythrocyte; Not Active = under 50% inhibition at 10 µM
[6] = target: Vascular endothelial growth factor receptor 1 (Homo sapiens, UniProt P17948); format: cell-based; settings: huvec; note: in other assays of this panel Not Active means under 50% inhibition at 10 µM
[7] = target: T1, Cysteinyl leukotriene receptor 1 (Homo sapiens, UniProt Q9Y271); format: cell membranes, CHO-K1, Membrane; settings: cho-k1; note: in other assays of this panel Not Active means under 50% inhibition at 10 µM
T1 sequence (Q9Y271 whole entry): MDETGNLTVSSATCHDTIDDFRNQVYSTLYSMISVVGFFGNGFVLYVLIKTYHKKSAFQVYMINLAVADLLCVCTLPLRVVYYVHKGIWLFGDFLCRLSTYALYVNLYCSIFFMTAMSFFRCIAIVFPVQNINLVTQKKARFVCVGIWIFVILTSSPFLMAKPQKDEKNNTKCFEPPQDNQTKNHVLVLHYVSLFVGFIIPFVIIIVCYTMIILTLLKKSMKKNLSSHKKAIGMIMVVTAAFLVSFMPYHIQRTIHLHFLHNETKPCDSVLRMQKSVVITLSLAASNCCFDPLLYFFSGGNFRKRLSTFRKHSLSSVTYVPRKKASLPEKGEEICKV

[8] = target: T2, 5-hydroxytryptamine receptor 1A (Rattus norvegicus, UniProt P19327); format: cell membranes, CHO-K1, Membrane; settings: cho-k1; note: in other assays of this panel Not Active means under 50% inhibition at 10 µM
T2 sequence (P19327 whole entry): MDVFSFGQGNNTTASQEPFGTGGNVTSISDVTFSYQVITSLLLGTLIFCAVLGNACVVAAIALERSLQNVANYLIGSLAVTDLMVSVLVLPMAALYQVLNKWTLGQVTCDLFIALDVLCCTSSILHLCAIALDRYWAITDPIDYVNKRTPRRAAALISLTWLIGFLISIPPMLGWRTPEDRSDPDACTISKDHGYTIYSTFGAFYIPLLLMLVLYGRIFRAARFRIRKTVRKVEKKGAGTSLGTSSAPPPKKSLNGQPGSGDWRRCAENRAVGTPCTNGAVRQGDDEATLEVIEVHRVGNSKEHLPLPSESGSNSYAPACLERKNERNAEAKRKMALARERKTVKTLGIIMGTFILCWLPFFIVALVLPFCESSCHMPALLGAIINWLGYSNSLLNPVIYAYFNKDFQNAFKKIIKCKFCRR

Melanocortin receptor 3 = Melanocortin receptor 3 (Homo sapiens, UniProt P41968); format: cell membranes, Membrane; settings: hek293; note: in other assays of this panel Not Active means under 50% inhibition at 10 µM
[9] = target: Tyrosine-protein kinase Fyn (Homo sapiens, UniProt P06241); assay: biochemical; format: cell-based, Insect cells; settings: insect cells
[10] = target: T3, Muscarinic acetylcholine receptor M5 (Homo sapiens, UniProt P08912); format: cell membranes, CHO-K1, Membrane; note: in other assays of this panel Not Active means under 50% inhibition at 10 µM
T3 sequence (P08912 whole entry): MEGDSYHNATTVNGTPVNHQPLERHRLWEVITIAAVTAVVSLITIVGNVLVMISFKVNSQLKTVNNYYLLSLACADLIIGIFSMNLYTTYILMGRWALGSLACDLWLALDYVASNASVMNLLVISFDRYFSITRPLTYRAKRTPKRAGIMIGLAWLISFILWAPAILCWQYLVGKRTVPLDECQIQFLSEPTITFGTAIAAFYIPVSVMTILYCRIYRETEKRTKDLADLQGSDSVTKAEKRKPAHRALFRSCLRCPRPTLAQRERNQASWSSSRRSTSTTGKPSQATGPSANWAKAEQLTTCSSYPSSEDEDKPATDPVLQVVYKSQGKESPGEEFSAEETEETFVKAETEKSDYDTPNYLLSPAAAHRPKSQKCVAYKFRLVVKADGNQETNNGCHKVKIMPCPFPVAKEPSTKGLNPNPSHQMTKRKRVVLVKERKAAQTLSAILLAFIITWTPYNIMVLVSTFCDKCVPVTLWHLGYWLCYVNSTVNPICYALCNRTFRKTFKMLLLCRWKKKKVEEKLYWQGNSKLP

Leukotriene C4 synthase = target: T4, Leukotriene C4 synthase (Cavia porcellus, UniProt A6XA80); assay: biochemical; format: tissue-based, Lung
T4 sequence (A6XA80 whole entry): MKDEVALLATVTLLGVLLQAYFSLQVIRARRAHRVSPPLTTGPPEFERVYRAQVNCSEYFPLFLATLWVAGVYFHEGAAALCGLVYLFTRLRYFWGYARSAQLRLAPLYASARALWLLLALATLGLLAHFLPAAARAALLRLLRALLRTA

[11] = target: Beta-2 adrenergic receptor (Homo sapiens, UniProt P07550); assay: DRUGMATRIX: Adrenergic beta2 radioligand binding (ligand: [3H] CGP-12177); format: cell membranes, Membrane; settings: cho; Not Active = under 50% inhibition at 10 µM
[12] = DRUGMATRIX: ATPase, Na+/K+ enzyme inhibition (substrate: ATP); format: tissue-based, Sus scrofa, Heart; settings: Not Active = under 50% inhibition at 10 µM
[13] = target: Protein kinase C alpha type (Homo sapiens, UniProt P17252); format: cell-based; settings: sf9
Adenosine receptor A3 = target: T5, Adenosine receptor A3 (Homo sapiens, UniProt P0DMS8); format: cell membranes, CHO-K1, Membrane; settings: cho-k1
T5 sequence (P0DMS8 whole entry): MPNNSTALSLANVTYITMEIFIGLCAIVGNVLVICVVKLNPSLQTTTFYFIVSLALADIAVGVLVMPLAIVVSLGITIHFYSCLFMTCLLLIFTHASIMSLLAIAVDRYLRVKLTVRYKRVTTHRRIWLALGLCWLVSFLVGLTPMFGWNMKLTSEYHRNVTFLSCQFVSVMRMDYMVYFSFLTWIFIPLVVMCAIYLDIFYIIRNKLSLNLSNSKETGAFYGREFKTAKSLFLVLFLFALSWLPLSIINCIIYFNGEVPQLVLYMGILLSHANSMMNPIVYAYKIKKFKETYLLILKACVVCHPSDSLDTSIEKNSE

Chain of Kappa-type opioid receptor (P41145 whole entry): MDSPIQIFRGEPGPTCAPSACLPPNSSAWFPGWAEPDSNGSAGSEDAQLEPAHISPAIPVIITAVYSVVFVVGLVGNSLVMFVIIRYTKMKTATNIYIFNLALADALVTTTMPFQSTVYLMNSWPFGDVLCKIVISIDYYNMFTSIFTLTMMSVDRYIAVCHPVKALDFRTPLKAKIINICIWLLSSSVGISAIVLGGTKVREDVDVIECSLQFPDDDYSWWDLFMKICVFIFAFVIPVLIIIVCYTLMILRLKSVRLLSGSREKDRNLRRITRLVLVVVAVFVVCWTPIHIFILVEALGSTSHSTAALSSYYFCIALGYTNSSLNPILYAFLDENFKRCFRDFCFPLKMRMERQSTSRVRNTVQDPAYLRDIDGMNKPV
Chain of Tyrosine-protein kinase Fyn (P06241 whole entry): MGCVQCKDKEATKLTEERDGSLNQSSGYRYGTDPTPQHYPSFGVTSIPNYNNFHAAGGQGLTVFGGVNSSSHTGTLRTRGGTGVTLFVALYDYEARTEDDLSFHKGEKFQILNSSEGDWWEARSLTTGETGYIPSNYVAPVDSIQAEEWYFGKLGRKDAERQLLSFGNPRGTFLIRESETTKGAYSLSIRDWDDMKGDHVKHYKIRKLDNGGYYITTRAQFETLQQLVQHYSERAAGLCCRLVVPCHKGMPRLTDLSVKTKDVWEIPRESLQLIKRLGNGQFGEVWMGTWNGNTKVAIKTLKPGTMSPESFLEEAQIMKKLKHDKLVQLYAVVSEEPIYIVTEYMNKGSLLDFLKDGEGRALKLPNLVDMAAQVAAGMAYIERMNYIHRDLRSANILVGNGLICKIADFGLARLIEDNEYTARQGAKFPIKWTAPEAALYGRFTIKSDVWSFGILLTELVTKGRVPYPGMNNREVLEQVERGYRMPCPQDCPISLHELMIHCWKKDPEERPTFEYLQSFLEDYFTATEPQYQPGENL
Chain of Melanocortin receptor 3 (P41968 whole entry): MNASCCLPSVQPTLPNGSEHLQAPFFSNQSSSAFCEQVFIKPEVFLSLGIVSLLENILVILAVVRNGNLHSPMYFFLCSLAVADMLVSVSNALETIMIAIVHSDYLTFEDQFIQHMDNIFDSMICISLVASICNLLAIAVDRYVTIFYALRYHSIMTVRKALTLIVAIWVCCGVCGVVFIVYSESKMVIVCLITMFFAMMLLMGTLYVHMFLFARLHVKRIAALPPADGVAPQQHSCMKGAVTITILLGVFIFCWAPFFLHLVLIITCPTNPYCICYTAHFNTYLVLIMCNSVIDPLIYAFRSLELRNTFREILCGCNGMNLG
Chain of Vascular endothelial growth factor receptor 1 (P17948 whole entry): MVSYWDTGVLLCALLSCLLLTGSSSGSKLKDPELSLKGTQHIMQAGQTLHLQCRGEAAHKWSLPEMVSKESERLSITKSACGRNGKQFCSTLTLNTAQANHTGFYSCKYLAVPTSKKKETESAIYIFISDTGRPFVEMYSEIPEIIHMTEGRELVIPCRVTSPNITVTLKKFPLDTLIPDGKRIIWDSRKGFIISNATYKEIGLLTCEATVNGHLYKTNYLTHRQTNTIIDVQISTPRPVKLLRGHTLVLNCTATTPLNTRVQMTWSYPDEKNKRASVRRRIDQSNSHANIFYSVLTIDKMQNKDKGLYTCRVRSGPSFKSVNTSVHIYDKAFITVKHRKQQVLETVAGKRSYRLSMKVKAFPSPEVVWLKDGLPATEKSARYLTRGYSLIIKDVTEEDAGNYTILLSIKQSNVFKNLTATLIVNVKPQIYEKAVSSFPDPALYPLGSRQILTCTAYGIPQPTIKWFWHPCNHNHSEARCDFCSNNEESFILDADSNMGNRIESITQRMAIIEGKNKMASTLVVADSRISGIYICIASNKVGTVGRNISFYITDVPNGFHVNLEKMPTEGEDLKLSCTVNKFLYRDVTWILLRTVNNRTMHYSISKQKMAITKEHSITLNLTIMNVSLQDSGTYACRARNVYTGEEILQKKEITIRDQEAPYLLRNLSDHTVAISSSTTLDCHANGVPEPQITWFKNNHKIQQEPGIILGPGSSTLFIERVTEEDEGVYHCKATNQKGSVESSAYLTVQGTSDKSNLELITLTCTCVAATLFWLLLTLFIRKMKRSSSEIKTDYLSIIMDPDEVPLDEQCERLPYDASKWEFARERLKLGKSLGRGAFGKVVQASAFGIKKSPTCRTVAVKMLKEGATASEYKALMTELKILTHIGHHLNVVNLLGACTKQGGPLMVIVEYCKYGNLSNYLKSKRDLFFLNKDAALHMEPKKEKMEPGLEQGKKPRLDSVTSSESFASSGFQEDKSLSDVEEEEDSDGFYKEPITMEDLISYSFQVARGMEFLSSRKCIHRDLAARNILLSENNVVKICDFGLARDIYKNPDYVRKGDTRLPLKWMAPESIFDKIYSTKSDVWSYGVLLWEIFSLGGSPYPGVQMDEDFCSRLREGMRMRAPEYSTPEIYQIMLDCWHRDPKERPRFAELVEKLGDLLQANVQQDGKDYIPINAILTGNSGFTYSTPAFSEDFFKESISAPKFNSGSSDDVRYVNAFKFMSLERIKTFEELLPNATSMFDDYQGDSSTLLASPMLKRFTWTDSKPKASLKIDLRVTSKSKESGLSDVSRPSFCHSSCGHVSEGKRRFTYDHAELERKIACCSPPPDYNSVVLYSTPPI
Chain of Beta-2 adrenergic receptor (P07550 whole entry): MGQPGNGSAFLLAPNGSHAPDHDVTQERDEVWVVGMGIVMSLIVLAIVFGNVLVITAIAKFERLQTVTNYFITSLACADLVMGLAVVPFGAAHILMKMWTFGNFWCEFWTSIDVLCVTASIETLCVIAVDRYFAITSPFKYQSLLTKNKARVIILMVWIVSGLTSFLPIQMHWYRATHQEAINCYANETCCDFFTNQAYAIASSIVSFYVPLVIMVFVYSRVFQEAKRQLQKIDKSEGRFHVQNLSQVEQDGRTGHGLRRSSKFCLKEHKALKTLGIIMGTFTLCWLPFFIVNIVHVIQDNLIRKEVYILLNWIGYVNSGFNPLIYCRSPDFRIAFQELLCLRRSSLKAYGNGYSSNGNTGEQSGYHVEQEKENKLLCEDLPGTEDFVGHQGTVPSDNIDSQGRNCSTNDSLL

CC1CN(c2cc3c(cc2F)c(=O)c(C(=O)O)cn3-c2ccc(F)cc2F)CCN1 (stereo not drawn) [TEMAFLOXACIN]
IC50 [1]: Not Active
Ki [1]: Not Active
IC50 [2]: Not Active
Ki [2]: Not Active
IC50 [3]: Not Active
IC50 [4]: Not Active
IC50 [5]: Not Active
Ki [5]: Not Active
IC50 (Carbonic anhydrase 2): Not Active
IC50 [6]: Not Active
IC50 [7]: Not Active
IC50 [8]: Not Active
IC50 (Melanocortin receptor 3): Not Active
IC50 [9]: Not Active
IC50 ([10]; cho-k1): Not Active
IC50 (Leukotriene C4 synthase): Not Active
IC50 [11]: Not Active
IC50 [12]: Not Active
Ki [12]: Not Active
IC50 [13]: Not Active
IC50 (Adenosine receptor A3): Not Active

CN(C)[C@@H]1C(O)=C(C(N)=O)C(=O)[C@@]2(O)C(O)=C3C(=O)c4c(O)cccc4[C@@](C)(O)[C@H]3C[C@@H]12 [TETRACYCLINE]
IC50 [1]: Not Active
Ki [1]: Not Active
IC50 [2]: Not Active
Ki [2]: Not Active
IC50 [3]: Not Active
IC50 [4]: Not Active
IC50 [5]: Not Active
Ki [5]: Not Active
IC50 (Carbonic anhydrase 2): Not Active
IC50 [6]: Not Active
IC50 [7]: Not Active
IC50 [8]: Not Active
IC50 (Melanocortin receptor 3): Not Active
IC50 [9]: Not Active
IC50 ([10]; cho-k1): Not Active
IC50 (Leukotriene C4 synthase): Not Active
IC50 [11]: Not Active
IC50 [12]: Not Active
Ki [12]: Not Active
IC50 [13]: Not Active
IC50 (Adenosine receptor A3): Not Active

c1ccc2[nH]c(-c3cscn3)nc2c1 [THIABENDAZOLE]
IC50 [1]: Not Active
Ki [1]: Not Active
IC50 [2]: Not Active
Ki [2]: Not Active
IC50 [3]: Not Active
IC50 [4]: Not Active
IC50 [5]: Not Active
Ki [5]: Not Active
IC50 (Carbonic anhydrase 2): Not Active
IC50 [6]: Not Active
IC50 [7]: Not Active
IC50 [8]: Not Active
IC50 (Melanocortin receptor 3): Not Active
IC50 [9]: Not Active
IC50 ([10]; cho-k1): Not Active
IC50 (Leukotriene C4 synthase): Not Active
IC50 [11]: Not Active
IC50 [12]: Not Active
Ki [12]: Not Active
IC50 [13]: Not Active
IC50 (Adenosine receptor A3): Not Active

Cc1ccc(C(=O)C(C)CN2CCCCC2)cc1 (stereo not drawn) [TOLPERISONE]
IC50 [1]: Not Active
Ki [1]: Not Active
IC50 [2]: Not Active
Ki [2]: Not Active
IC50 [3]: Not Active
IC50 [4]: Not Active
IC50 [5]: Not Active
Ki [5]: Not Active
IC50 (Carbonic anhydrase 2): Not Active
IC50 [6]: Not Active
IC50 [7]: Not Active
IC50 [8]: Not Active
IC50 (Melanocortin receptor 3): Not Active
IC50 [9]: Not Active
IC50 ([10]; cho-k1): Not Active
IC50 (Leukotriene C4 synthase): Not Active
IC50 [11]: Not Active
IC50 [12]: Not Active
Ki [12]: Not Active
IC50 [13]: Not Active
IC50 (Adenosine receptor A3): Not Active

NC(CO)(CO)CO [TROMETHAMINE]
IC50 [1]: Not Active
Ki [1]: Not Active
IC50 [2]: Not Active
Ki [2]: Not Active
IC50 [3]: Not Active
IC50 [4]: Not Active
IC50 [5]: Not Active
Ki [5]: Not Active
IC50 (Carbonic anhydrase 2): Not Active
IC50 [6]: Not Active
IC50 [7]: Not Active
IC50 [8]: Not Active
IC50 (Melanocortin receptor 3): Not Active
IC50 [9]: Not Active
IC50 ([10]; cho-k1): Not Active
IC50 (Leukotriene C4 synthase): Not Active
IC50 [11]: Not Active
IC50 [12]: Not Active
Ki [12]: Not Active
IC50 [13]: Not Active
IC50 (Adenosine receptor A3): Not Active

CN1[C@@H]2CC[C@H]1C[C@@H](OC(=O)c1c[nH]c3ccccc13)C2 [TROPISETRON]
IC50 [1]: Not Active
Ki [1]: Not Active
IC50 [2]: Not Active
Ki [2]: Not Active
IC50 [3]: Not Active
IC50 [4]: Not Active
IC50 [5]: Not Active
Ki [5]: Not Active
IC50 (Carbonic anhydrase 2): Not Active
IC50 [6]: Not Active
IC50 [7]: Not Active
IC50 [8]: Not Active
IC50 (Melanocortin receptor 3): Not Active
IC50 [9]: Not Active
IC50 ([10]; read-out: IC50): 3.45 µM
Ki ([10]; read-out: Ki): 2.48 µM
IC50 (Leukotriene C4 synthase): Not Active
IC50 [11]: Not Active
IC50 [12]: Not Active
Ki [12]: Not Active
IC50 [13]: Not Active
IC50 (Adenosine receptor A3): Not Active

COc1cc(C(=O)NC2CCCNC2)cc(OC)c1OC (stereo not drawn) [TROXIPIDE]
IC50 [1]: Not Active
Ki [1]: Not Active
IC50 [2]: Not Active
Ki [2]: Not Active
IC50 [3]: Not Active
IC50 [4]: Not Active
IC50 [5]: Not Active
Ki [5]: Not Active
IC50 (Carbonic anhydrase 2): Not Active
IC50 [6]: Not Active
IC50 [7]: Not Active
IC50 [8]: Not Active
IC50 (Melanocortin receptor 3): Not Active
IC50 [9]: Not Active
IC50 ([10]; cho-k1): Not Active
IC50 (Leukotriene C4 synthase): Not Active
IC50 [11]: Not Active
IC50 [12]: Not Active
Ki [12]: Not Active
IC50 [13]: Not Active
IC50 (Adenosine receptor A3): Not Active
